We go through 26 compounds from ChEMBL document CHEMBL1128859, “Cmi-206: A potent dual platelet activating factor antagonist and 5-lipoxygenase inhibitor” (Bioorg Med Chem Lett, 1995).

For test [1], the target named is Platelet-activating factor receptor (Homo sapiens, UniProt P25105). The test is described as follows: In vitro affinity for human PAF receptor on platelet membranes using [3H]PAF displacement.
Test [2] has as its target T1, Polyunsaturated fatty acid 5-lipoxygenase (Rattus norvegicus, UniProt P12527).
T1 sequence (P12527 whole entry): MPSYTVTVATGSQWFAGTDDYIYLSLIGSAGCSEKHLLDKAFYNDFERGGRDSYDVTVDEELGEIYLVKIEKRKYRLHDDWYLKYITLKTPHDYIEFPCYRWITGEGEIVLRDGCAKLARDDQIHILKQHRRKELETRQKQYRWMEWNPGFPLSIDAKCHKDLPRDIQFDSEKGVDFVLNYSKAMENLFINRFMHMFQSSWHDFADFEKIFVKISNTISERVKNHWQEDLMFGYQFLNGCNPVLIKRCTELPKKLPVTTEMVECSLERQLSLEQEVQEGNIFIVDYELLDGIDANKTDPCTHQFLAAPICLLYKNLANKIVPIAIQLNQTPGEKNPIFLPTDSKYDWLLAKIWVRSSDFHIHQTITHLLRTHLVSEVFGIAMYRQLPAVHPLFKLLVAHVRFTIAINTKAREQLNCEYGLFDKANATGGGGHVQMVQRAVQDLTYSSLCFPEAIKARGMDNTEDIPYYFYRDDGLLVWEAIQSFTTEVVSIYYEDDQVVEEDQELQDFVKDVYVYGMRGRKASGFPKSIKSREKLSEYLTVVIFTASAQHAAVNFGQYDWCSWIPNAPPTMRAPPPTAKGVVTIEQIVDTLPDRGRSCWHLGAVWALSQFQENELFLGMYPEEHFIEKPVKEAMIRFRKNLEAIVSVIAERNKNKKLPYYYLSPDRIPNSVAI
Kind of test: In vitro inhibition of 5-lipoxygenase in RBL-2H3 (Rat basophilic leukemia) cells. The test is classed as functional, cell-based.

For test [3], the species on record is Homo sapiens. The test is described as follows: Inhibition of human whole blood (HWB) LTB4 production in A-23,187-activated human whole blood by the enzyme immunoassay at a dose of 3 uM. The test is classed as functional.
The subject of test [4] is Mus musculus. The test is described as follows: Ability to antagonize PAF-induced hemoconcentration PAF HTc in mice at a dose of 3 mg/kg. The test is classed as functional.
For test [5], the species on record is Homo sapiens. Kind of test: Inhibition of human whole blood (HWB) LTB4 production in A-23,187-activated human whole blood by the enzyme immunoassay. In kind it is functional.
The next test relates to Rattus norvegicus. The test is described as follows: Concentration of LTB4 was determined by enzyme immunoassay (Ex vivo) rat whole blood after intravenous administration of 5 mg/Kg. In kind it is functional.
In test [6] the test system is Mus musculus. The test is described as follows: Arachidonic acid (AA)-induced ear edema in mice was determined by topically applying AA to ears of mice. In kind it is functional.

The IC50 is the concentration at which inhibition is half-maximal. Read a high IC50 as lower potency. For orientation: inhibition means how much of the control response was suppressed. Broadly, the inhibition in vivo is how much of the control response was suppressed. Broadly, the Inhibition is the drop in the measured response relative to a control, in per cent. High values mean a strong effect, low ones a weak effect.

Chain of Platelet-activating factor receptor (P25105 whole entry): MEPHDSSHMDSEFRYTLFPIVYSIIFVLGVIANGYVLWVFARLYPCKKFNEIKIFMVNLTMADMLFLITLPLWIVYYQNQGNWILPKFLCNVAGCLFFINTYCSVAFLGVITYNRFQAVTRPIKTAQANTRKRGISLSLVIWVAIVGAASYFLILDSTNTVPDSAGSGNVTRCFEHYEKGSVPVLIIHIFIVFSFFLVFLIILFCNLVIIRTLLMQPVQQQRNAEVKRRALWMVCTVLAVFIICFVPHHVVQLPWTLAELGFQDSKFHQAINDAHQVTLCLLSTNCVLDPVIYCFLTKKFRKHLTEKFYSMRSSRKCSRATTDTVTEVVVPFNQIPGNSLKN

With `CCCOc1cc([C@H]2CC[C@H](c3cc(OC)c(OC)c(OC)c3)O2)cc(N(O)C(=O)NCC)c1OCCC`, the half-inhibitory concentration (IC50) in test [1] stood at 0.059 µM.

Compound `CCCOc1c(NC(=O)N(O)C(C)(C)C)cc(C2CCC(c3cc(OC)c(OC)c(OC)c3)O2)cc1OC` (cis isomer) had an IC50 in test [1] of 0.456 µM.

For the compound `CCCOc1c(NC(=O)N(O)C(C)CC)cc(C2CCC(c3cc(OC)c(OC)c(OC)c3)O2)cc1OC` (cis isomer), the IC50 was 1.61 µM in test [1] and 0.45 µM in test [2].

In the test listed under Homo sapiens [3], `CC(c1cc2ccccc2s1)N(O)C(N)=O` (stereo not given) [ZILEUTON] showed an inhibition at 3 µM of 75%.

As to `CCCCN(O)C(=O)Nc1cc(C2CCC(c3cc(OC)c(OC)c(OC)c3)O2)cc(OC)c1OCCC` (cis isomer), the IC50 is 1.31 µM in test [1] and 0.5 µM in test [2].

For `CCCOc1c(NC(=O)NO)cc(C2CCC(c3cc(OC)c(OC)c(OC)c3)O2)cc1OC` (trans isomer), the concentration for half-maximal inhibition (IC50) in test [1] was determined as 0.03 µM.

Take `CCCOc1cc([C@H]2CC[C@H](c3cc(OC)c(OC)c(OC)c3)O2)cc(N(CC)C(=O)N(C)O)c1OCCC`: the IC50 in test [1] came out at 0.068 µM; in test [2], 3.07 µM.

Take `CCCOc1c(NC(=O)N(O)CC)cc(C2CCC(c3cc(OC)c(OC)c(OC)c3)O2)cc1OC` (trans isomer): the IC50 worked out at 0.008 µM in test [1] and 0.15 µM in test [2]. The compound also gave an inhibition in vivo at 3 mg/kg in the test with Mus musculus [4] of 58%. This compound also displayed an inhibition at 3 µM in the test filed under Homo sapiens [3] of 23%.

As to `CCCOc1c(NC(=O)N(O)C(C)(C)C)cc(C2CCC(c3cc(OC)c(OC)c(OC)c3)O2)cc1OC` (trans isomer), the figures for the IC50 in test [1] and in test [2] were 0.026 µM and 2.9 µM, respectively.

In the case of `CCCOc1c(NC(=O)N(O)CCC)cc(C2CCC(c3cc(OC)c(OC)c(OC)c3)O2)cc1OC` (stereo in doubt), the IC50 in test [2] is 10 µM.

As for `CCCOc1c(NC(=O)N(O)CC)cc(C2CCC(c3cc(OC)c(OC)c(OC)c3)O2)cc1OC` (stereo in doubt), the IC50 in test [1] stood at 0.383 µM; in test [2], 3 µM.

`CCCOc1c(NC(=O)N(C)O)cc(C2CCC(c3cc(OC)c(OC)c(OC)c3)O2)cc1OC` (trans isomer): the IC50 in test [1] was determined as 0.017 µM; in test [2], 0.63 µM.

For the compound `CCCOc1c(NC(=O)N(O)C(C)C)cc(C2CCC(c3cc(OC)c(OC)c(OC)c3)O2)cc1OC` (trans isomer), the values for the IC50 in test [1] and in test [2] were 0.058 µM and 3 µM, respectively.

Turning to `CCCOc1c(NC(=O)N(O)C(C)CC)cc(C2CCC(c3cc(OC)c(OC)c(OC)c3)O2)cc1OC` (trans isomer), the IC50 in test [1] was 0.025 µM; in test [2], 0.6 µM. The same compound gave an inhibition at 3 µM in the test filed under Homo sapiens [3] of 57%.

With `CCCOc1c(NC(=O)N(O)C2CCCCC2)cc(C2CCC(c3cc(OC)c(OC)c(OC)c3)O2)cc1OC` (trans isomer), the IC50 in test [1] was 0.278 µM.

Take `CCCOc1cc([C@H]2CC[C@H](c3cc(OC)c(OC)c(OC)c3)O2)cc(N(CC)C(=O)N(O)CC)c1OCCC`: the figures for the IC50 in test [1] and in test [2] were 0.017 µM and 1.34 µM, respectively.

On to `CCCOc1c(NC(=O)N(O)C2CCCCC2)cc(C2CCC(c3cc(OC)c(OC)c(OC)c3)O2)cc1OC` (cis isomer), for which the IC50 in test [1] came out at 1 µM; in test [2], 2.54 µM.

Regarding `CCCOc1c(NC(=O)NO)cc(C2CCC(c3cc(OC)c(OC)c(OC)c3)O2)cc1OC` (stereo in doubt), in test [1], the IC50 came out at 0.3 µM.

In the case of `CCCNC(=O)N(O)c1cc([C@H]2CC[C@H](c3cc(OC)c(OC)c(OC)c3)O2)cc(OCCC)c1OCCC`, the IC50 came out at 0.091 µM in test [1] and 3 µM in test [2].

On to `CCCOc1c(NC(=O)N(O)CCC)cc(C2CCC(c3cc(OC)c(OC)c(OC)c3)O2)cc1OC` (trans isomer), for which the IC50 in test [2] (rbl-2h3) was determined as 10 µM.

With `CCCOc1c(NC(=O)N(O)Cc2ccccc2)cc(C2CCC(c3cc(OC)c(OC)c(OC)c3)O2)cc1OC` (trans isomer), the IC50 was found to be 0.423 µM in test [1] and 2.24 µM in test [2].

`CCCOc1c(NC(=O)N(C)O)cc(C2CCC(c3cc(OC)c(OC)c(OC)c3)O2)cc1OC` (cis isomer) displayed an IC50 in test [1] of 0.514 µM.

For the compound `CCCCN(O)C(=O)Nc1cc(C2CCC(c3cc(OC)c(OC)c(OC)c3)O2)cc(OC)c1OCCC` (stereo in doubt), the IC50 in test [1] was 0.033 µM; in the test filed under Homo sapiens [5], 1.68 µM; in test [2] it was 0.42 µM. The inhibition in vivo at 3 mg/kg in the test with Mus musculus [4] was found to be 31%. The inhibition in vivo at 5 mg/kg in the test on Rattus norvegicus was found to be 67%. The inhibition at 3 µM in the test filed under Homo sapiens [3] was found to be 64%. Further, the Inhibition with Mus musculus [6] was 60%.

On to `CCCOc1c(NC(=O)N(O)Cc2ccccc2)cc(C2CCC(c3cc(OC)c(OC)c(OC)c3)O2)cc1OC` (cis isomer), for which the IC50 was 0.585 µM in test [1] and 8 µM in test [2].

As to `CCCOc1cc([C@H]2CC[C@H](c3cc(OC)c(OC)c(OC)c3)O2)cc(N(CC)C(=O)N(O)CCC)c1OCCC`, the IC50 in test [1] stood at 0.056 µM.

For the compound `CCCOc1c(NC(=O)N(O)C(C)C)cc(C2CCC(c3cc(OC)c(OC)c(OC)c3)O2)cc1OC` (stereo in doubt), the values for the IC50 in test [1] and in test [2] were 0.858 µM and 2.83 µM, respectively.
